Reference: patent publication US11117892B2, “Pyrrolo-pyridine derivative compound, method for preparing same, and pharmaceutical composition containing same as active ingredient for prevention or treatment of protein kinase-related diseases” (DAEGU-GYEONGBUK MEDICAL INNOVATION FOUNDATION, priority 2017, dated 2021)

Assays:
Test in all cases: scanMAX Kinase assay panel
Format in all cases: binding
Conditions in all cases: read-out: % control
[1] = target: ABL1(Q252H)-nonphosphorylated (Homo sapiens (Human), UniProt P00519, Q252H)
In short: (§1)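 Panel: scanMAX. Metric: % control. The 100% anchor is DMSO and the 0% anchor is the positive control.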

ABL1-phosphorylated = ABL1-phosphorylated (Homo sapiens (Human), UniProt P00519)
In short: as §1

ACVRL1 = ACVRL1 (Homo sapiens (Human), UniProt P37023)
In short: as §1

BRAF(V600E) = BRAF(V600E) (Homo sapiens (Human), UniProt P15056, V600E)
In short: as §1

BRSK1 = BRSK1 (Homo sapiens (Human), UniProt Q8TDC3)
In short: as §1

CAMK1G = CAMK1G (Homo sapiens (Human), UniProt Q96NX5)
In short: as §1

CAMKK2 = CAMKK2 (Homo sapiens (Human), UniProt Q96RR4)
In short: as §1

CDK4 = CDK4 (Homo sapiens (Human), UniProt P11802)
In short: as §1

CDK8 = CDK8 (Homo sapiens (Human), UniProt P49336)
In short: as §1

DCAMKL1 = DCAMKL1 (Homo sapiens (Human), UniProt O15075)
In short: as §1

DRAK2 = DRAK2 (Homo sapiens (Human), UniProt O94768)
In short: as §1

EGFR = EGFR (Homo sapiens (Human), UniProt P00533)
In short: as §1

FER = FER (Homo sapiens (Human), UniProt P16591)
In short: as §1

FGFR1 = FGFR1 (Homo sapiens (Human), UniProt P11362)
In short: as §1

FLT3(D835H) = FLT3(D835H) (Homo sapiens (Human), UniProt P36888, D835H)
In short: as §1

GRK3 = GRK3 (Homo sapiens (Human), UniProt P35626)
In short: as §1

IGF1R = IGF1R (Homo sapiens (Human), UniProt P08069)
In short: as §1

[2] = target: JAK3(JH1domain-catalytic) (Homo sapiens (Human), UniProt P52333)
In short: as §1

KIT(L576P) = KIT(L576P) (Homo sapiens (Human), UniProt P10721, L576P)
In short: as §1

LRRK2(G2019S) = LRRK2(G2019S) (Homo sapiens (Human), UniProt Q5S007, G2019S)
In short: as §1

MAP3K15 = MAP3K15 (Homo sapiens (Human), UniProt Q6ZN16)
In short: as §1

MAPKAPK2 = MAPKAPK2 (Homo sapiens (Human), UniProt P49137)
In short: as §1

MARK2 = MARK2 (Homo sapiens (Human), UniProt Q7KZI7)
In short: as §1

MEK2 = MEK2 (Homo sapiens (Human), UniProt P36507)
In short: as §1

MYLK2 = MYLK2 (Homo sapiens (Human), UniProt Q9H1R3)
In short: as §1

PIK3C2G = PIK3C2G (Homo sapiens (Human), UniProt O75747)
In short: as §1

PIK3CA(C420R) = PIK3CA(C420R) (Homo sapiens (Human), UniProt P42336, C420R)
In short: as §1

PIK4CB = PIK4CB (Homo sapiens (Human), UniProt Q9UBF8)
In short: as §1

PIM3 = PIM3 (Homo sapiens (Human), UniProt Q86V86)
In short: as §1

PRKD1 = PRKD1 (Homo sapiens (Human), UniProt Q15139)
In short: as §1

PRKR = PRKR (Homo sapiens (Human), UniProt P19525)
In short: as §1

RIPK2 = RIPK2 (Homo sapiens (Human), UniProt O43353)
In short: as §1

SGK3 = SGK3 (Homo sapiens (Human), UniProt Q96BR1)
In short: as §1

STK39 = STK39 (Homo sapiens (Human), UniProt Q9UEW8)
In short: as §1

TESK1 = TESK1 (Homo sapiens (Human), UniProt Q15569)
In short: as §1

TRKC = TRKC (Homo sapiens (Human), UniProt Q16288)
In short: as §1

TSSK1B = TSSK1B (Homo sapiens (Human), UniProt Q9BXA7)
In short: as §1

WNK3 = WNK3 (Homo sapiens (Human), UniProt Q9BYP7)
In short: as §1

ZAP70 = ZAP70 (Homo sapiens (Human), UniProt P43403)
In short: as §1

Chain of LRRK2(G2019S) (Q5S007 whole entry G2019S): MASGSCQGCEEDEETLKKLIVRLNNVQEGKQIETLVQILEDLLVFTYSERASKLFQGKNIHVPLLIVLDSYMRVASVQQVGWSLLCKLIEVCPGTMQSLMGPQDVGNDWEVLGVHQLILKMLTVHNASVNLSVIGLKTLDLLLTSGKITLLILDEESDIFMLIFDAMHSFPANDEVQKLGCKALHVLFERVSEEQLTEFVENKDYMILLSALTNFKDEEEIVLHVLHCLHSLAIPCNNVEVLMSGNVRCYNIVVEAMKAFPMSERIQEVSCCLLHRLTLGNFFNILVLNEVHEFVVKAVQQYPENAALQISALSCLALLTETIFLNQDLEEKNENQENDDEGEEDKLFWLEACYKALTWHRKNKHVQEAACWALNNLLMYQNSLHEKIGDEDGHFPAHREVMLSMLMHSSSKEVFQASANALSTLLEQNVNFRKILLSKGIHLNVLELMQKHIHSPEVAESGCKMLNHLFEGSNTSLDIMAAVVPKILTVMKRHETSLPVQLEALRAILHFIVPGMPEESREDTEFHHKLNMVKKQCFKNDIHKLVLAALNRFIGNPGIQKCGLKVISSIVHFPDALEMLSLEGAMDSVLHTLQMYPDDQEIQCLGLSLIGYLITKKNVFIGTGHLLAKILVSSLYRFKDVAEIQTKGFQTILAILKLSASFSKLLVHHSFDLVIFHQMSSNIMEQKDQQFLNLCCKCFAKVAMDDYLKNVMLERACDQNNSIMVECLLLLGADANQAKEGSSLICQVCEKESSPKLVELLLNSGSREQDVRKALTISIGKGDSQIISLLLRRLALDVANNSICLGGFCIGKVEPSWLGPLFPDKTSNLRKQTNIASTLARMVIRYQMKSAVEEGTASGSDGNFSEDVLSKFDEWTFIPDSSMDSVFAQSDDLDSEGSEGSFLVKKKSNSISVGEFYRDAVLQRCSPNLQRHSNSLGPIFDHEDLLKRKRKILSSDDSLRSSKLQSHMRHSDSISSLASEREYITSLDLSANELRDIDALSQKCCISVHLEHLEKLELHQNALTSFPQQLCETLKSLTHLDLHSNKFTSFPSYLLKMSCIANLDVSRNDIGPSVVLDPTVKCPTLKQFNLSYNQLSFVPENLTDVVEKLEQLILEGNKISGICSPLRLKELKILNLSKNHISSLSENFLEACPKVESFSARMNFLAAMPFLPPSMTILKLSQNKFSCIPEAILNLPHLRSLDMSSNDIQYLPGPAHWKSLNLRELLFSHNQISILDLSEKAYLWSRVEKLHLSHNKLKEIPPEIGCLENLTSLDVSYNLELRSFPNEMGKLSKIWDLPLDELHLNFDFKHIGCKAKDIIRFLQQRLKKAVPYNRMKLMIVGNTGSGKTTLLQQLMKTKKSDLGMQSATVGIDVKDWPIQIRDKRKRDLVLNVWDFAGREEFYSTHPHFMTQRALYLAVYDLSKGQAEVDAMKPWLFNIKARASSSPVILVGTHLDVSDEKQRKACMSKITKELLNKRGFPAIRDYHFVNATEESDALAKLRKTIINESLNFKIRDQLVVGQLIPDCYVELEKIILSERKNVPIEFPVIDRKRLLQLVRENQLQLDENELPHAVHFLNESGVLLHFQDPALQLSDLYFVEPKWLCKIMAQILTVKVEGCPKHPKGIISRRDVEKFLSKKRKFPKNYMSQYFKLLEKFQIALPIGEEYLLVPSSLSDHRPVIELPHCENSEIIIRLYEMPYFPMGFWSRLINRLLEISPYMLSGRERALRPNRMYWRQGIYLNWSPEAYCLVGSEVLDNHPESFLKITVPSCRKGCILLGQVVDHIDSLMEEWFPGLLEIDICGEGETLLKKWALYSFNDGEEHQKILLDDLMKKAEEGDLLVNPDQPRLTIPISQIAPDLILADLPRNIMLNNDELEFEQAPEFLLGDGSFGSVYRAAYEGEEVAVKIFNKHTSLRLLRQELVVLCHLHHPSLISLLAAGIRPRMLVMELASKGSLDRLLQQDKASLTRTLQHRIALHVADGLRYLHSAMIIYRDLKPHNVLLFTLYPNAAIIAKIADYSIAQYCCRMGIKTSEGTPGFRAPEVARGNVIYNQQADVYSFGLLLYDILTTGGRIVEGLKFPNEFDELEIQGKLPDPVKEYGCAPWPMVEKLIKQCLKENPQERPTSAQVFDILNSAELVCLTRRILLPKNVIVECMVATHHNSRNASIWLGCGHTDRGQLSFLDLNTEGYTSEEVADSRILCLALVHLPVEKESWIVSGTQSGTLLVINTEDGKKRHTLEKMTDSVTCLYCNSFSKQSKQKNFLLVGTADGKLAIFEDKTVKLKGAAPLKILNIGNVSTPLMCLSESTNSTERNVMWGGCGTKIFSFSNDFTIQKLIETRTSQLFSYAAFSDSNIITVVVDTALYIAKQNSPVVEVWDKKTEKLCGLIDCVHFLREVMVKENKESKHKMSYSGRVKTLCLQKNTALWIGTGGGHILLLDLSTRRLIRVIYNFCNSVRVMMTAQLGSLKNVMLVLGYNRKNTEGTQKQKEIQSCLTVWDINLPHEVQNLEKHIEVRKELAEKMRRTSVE
Chain of ZAP70 (P43403 whole entry): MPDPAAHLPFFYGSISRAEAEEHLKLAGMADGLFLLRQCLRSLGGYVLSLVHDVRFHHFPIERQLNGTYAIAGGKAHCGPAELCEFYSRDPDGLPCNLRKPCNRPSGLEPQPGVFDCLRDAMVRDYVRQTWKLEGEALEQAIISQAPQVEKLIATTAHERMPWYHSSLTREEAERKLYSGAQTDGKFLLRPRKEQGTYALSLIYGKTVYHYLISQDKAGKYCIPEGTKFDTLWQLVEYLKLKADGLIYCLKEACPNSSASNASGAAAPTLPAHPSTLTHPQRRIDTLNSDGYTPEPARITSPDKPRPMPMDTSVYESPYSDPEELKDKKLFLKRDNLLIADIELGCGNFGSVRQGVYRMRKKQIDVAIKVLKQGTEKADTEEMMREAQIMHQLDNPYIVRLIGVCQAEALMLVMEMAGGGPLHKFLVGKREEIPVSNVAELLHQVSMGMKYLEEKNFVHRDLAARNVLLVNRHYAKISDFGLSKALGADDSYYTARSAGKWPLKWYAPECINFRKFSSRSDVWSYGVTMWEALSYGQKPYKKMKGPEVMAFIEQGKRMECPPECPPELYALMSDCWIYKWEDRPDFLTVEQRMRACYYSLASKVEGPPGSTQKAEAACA
Chain of MAPKAPK2 (P49137 whole entry): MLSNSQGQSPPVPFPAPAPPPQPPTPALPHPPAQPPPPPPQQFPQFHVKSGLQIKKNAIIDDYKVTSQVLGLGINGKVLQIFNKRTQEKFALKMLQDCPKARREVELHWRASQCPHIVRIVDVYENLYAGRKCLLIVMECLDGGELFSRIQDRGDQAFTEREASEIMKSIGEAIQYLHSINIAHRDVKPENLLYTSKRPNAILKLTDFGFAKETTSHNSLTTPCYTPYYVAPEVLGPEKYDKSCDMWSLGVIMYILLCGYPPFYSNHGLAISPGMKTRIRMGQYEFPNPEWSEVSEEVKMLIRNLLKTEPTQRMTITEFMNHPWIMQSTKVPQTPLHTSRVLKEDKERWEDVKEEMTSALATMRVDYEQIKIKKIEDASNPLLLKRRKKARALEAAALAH
Chain of CDK4 (P11802 whole entry): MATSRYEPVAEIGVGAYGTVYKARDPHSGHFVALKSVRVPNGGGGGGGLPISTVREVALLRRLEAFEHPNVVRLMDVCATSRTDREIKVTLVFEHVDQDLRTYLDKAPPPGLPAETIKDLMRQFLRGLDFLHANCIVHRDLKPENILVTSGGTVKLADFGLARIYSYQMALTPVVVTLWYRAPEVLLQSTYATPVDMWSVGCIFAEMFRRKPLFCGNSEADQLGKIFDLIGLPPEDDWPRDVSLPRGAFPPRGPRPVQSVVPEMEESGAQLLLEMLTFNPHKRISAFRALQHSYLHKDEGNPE
Chain of MARK2 (Q7KZI7 whole entry): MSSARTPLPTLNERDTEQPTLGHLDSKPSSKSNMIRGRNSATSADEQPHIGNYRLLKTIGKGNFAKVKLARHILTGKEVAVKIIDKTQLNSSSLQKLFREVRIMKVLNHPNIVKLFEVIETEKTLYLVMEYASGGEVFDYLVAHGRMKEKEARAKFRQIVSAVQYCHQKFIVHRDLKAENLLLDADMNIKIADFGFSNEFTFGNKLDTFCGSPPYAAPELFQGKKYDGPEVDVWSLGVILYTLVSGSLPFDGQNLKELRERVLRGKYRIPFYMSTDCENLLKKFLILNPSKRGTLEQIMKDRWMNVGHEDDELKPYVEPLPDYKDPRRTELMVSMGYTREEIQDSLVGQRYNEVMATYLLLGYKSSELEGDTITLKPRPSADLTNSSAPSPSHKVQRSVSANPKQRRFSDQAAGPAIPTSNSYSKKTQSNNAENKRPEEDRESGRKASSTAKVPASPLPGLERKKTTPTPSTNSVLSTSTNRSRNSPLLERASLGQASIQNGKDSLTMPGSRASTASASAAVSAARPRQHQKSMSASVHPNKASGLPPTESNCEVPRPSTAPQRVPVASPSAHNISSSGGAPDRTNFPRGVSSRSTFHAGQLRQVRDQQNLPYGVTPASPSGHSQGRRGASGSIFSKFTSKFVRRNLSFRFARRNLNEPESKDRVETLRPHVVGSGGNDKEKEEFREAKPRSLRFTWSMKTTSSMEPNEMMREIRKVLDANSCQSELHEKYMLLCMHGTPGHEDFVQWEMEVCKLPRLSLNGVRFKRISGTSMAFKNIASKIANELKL

Row | SMILES | remaining binding at 1 µM [1] [%] | remaining binding at 1 µM (ABL1-phosphorylated) [%] | remaining binding at 1 µM (ACVRL1) [%] | remaining binding at 1 µM (BRAF(V600E)) [%] | remaining binding at 1 µM (BRSK1) [%] | remaining binding at 1 µM (CAMK1G) [%] | remaining binding at 1 µM (CAMKK2) [%] | remaining binding at 1 µM (CDK4) [%] | remaining binding at 1 µM (CDK8) [%] | remaining binding at 1 µM (DCAMKL1) [%] | remaining binding at 1 µM (DRAK2) [%] | remaining binding at 1 µM (EGFR) [%] | remaining binding at 1 µM (FER) [%] | remaining binding at 1 µM (FGFR1) [%] | remaining binding at 1 µM (FLT3(D835H)) [%] | remaining binding at 1 µM (GRK3) [%] | remaining binding at 1 µM (IGF1R) [%] | remaining binding at 1 µM [2] [%] | remaining binding at 1 µM (KIT(L576P)) [%] | remaining binding at 1 µM (LRRK2(G2019S)) [%] | also measured
1 | CCNc1cc(Nc2ccc(C(=O)N3CCC(N4CCOCC4)CC3)cc2OC)nc2[nH]cc(C#N)c12 [Example 18, 4-(ethylamino)-6-((2-methoxy-4-(4-morpholinopiperidine-1-carbonyl)phenyl)amino)-1H-pyrrolo[2,3-b]pyridine-3-carbonitrile] | 95 | 87 | 80 | 87 | 94 | 71 | 52 | 100 | 100 | 85 | 27 | 100 | 62 | 87 | 89 | 58 | 74 | 54 | 77 | 0.6 | remaining binding at 1 µM (MAP3K15): 53%; remaining binding at 1 µM (MAPKAPK2): 21%; remaining binding at 1 µM (MARK2): 89%; remaining binding at 1 µM (MEK2): 26%; remaining binding at 1 µM (MYLK2): 72%; remaining binding at 1 µM (PIK3C2G): 92%; remaining binding at 1 µM (PIK3CA(C420R)): 87%; remaining binding at 1 µM (PIK4CB): 80%; remaining binding at 1 µM (PIM3): 78%; remaining binding at 1 µM (PRKD1): 14%; remaining binding at 1 µM (PRKR): 95%; remaining binding at 1 µM (RIPK2): 86%; remaining binding at 1 µM (SGK3): 79%; remaining binding at 1 µM (STK39): 26%; remaining binding at 1 µM (TESK1): 90%; remaining binding at 1 µM (TRKC): 93%; remaining binding at 1 µM (TSSK1B): 34%; remaining binding at 1 µM (WNK3): 82%; remaining binding at 1 µM (ZAP70): 38%
2 | CCNc1cc(Nc2ccc(C(=O)N3CCC(N4CCOCC4)CC3)cc2OC)nc2[nH]cc(C(F)(F)F)c12 [Example 57, (4-((4-(ethylamino)-3-(trifluoromethyl)-1H-pyrrolo[2,3-b]pyridin-6-yl)amino)-3-methoxyphenyl) (4-morpholinopiperidin-1-yl)methanone] | 54 | 61 | 89 | 94 | 94 | 63 | 49 | 100 | 90 | 86 | 69 | 59 | 67 | 87 | 100 | 100 | 71 | 100 | 100 | 27 | remaining binding at 1 µM (MAP3K15): 100%; remaining binding at 1 µM (MAPKAPK2): 51%; remaining binding at 1 µM (MARK2): 93%; remaining binding at 1 µM (MEK2): 100%; remaining binding at 1 µM (MYLK2): 85%; remaining binding at 1 µM (PIK3C2G): 100%; remaining binding at 1 µM (PIK3CA(C420R)): 100%; remaining binding at 1 µM (PIK4CB): 100%; remaining binding at 1 µM (PIM3): 78%; remaining binding at 1 µM (PRKD1): 73%; remaining binding at 1 µM (PRKR): 93%; remaining binding at 1 µM (RIPK2): 94%; remaining binding at 1 µM (SGK3): 100%; remaining binding at 1 µM (STK39): 43%; remaining binding at 1 µM (TESK1): 79%; remaining binding at 1 µM (TRKC): 100%; remaining binding at 1 µM (TSSK1B): 53%; remaining binding at 1 µM (WNK3): 100%; remaining binding at 1 µM (ZAP70): 100%
